According to publication PMC6400584, “Activation mechanism of ATP-sensitive K^+ channels explored with real-time nucleotide binding” (eLife, 2019):
Read-outs that look alike come from different tables or passages of the source.

Experiments:
SUR1/Kir6.2 = molecular target: T1, SUR1/Kir6.2 (Homo sapiens, UniProt Q09428+Q14654); set-up: method as in Proks et al., 2010; conditions: 100 μM in Mg2+-free solutions; wild-type; ref Proks et al., 2010; cited from earlier work
T1 construct: expressed in transfected cells; host or cells: HEK-293T

SUR1-T1397*/Kir6.2 [1] = molecular target: T2, SUR1-T1397*/Kir6.2 (Homo sapiens, UniProt Q09428, T1397X); test: FRET binding of TNP-nucleotides to ANAP-labeled KATP in unroofed membrane fragments; conditions: absence of Mg2+
T2 construct: confirmed that >95% of SUR1-T1397* was full length; expressed in transfected cells; host or cells: HEK-293T
Procedure: (§1) Unroofed membranes were prepared using a modification of a protocol from the Heuser laboratory ([Heuser, 2000]; [Usukura et al., 2012]; [Zagotta et al., 2016]). Briefly, a coverslip containing adherent cells was removed from the cell culture medium and a small piece (0.5–1 cm) was broken off using jewelers forceps (#5) and washed in phosphate buffered saline (PBS, Thermo Fisher Scientific) diluted 1:3 in deionized water. Cells were exposed 3 × 10 s to a solution of 0.01% poly-L-lysine (Sigma) with intervening washes in diluted PBS to adhere them more firmly to the coverslips. The coverslip fragment was then placed in a 30 mm culture dish filled with 2–3 mL of 1/3X PBS and sonicated very briefly (~100 ms) using a probe sonicator (Vibra-cell; Newtown, CT), leaving behind adherent plasma membrane and sometimes additional cellular material. The unroofed fragments in our experiments were sometimes visible under bright-field illumination, a potential result of our modified ‘unroofing’ procedure. Morphologically, such cell fragments resemble the ‘partially unroofed’ cells identified by Usukura et al. ([Usukura et al., 2012]) Cells cultured on poly-D-lysine coated FluoroDishes were unroofed in diluted PBS with no additional poly-L-lysine treatment. This procedure yielded a higher percentage of completely unroofed plasma membranes (i.e. nearly invisible with brightfield illumination).
(§2) Unroofed membrane fragments were imaged directly on FluoroDishes (FD35-PDL-100, World Precision Instruments) or on broken coverslips placed in a FluoroDish (FD3510, World Precision instruments) using a Nikon TE2000-U microscope equipped with a 40x (S Fluor, 1.3 NA; Nikon, Kingston Upon Thames, UK) or 100x (Apo TIRF, 1.49 NA, Nikon) oil-immersion objective and low-fluorescence immersion oil (MOIL-30, Olympus; Southend-on-Sea, UK) or a 60x water immersion objective (Plan Apo VC, 1.20 NA, Nikon). ANAP was excited using a ThorLabs LED source (LED4D067) at 385 nm connected to the microscope using a liquid light guide in series with a 390/18 nm band-pass filter (MF390-18, ThorLabs; Newton, NJ) and MD416 dichroic (ThorLabs). For imaging, emitted light was filtered through a 479/40 nm band-pass filter (MF479-40, ThorLabs). GFP-tagged constructs were imaged using a similar setup with excitation at 490 nm, a 480/40 band-pass excitation filter (Chroma; Bellows Falls, VT), a DM505 dichroic mirror (Chroma), and 510 nm long-pass emission filter (Chroma). All images were acquired using a PIXIS 400B CCD camera (Princeton Instruments; Trenton, NJ). For spectroscopy, ANAP was excited as above, but emitted light was passed through a 400 nm long-pass filter (FEL0400, ThorLabs) and directed through the slit of an Isoplane 160 spectrometer (300 g/mm grating; Princeton Instruments) in series with the camera. The acquired images retained spatial information in the y-dimension, with the x-dimension replaced by wavelength (Figure 1—figure supplement 1a). Exposure times were typically 100 ms for brightfield images, 1–10 s for steady-state spectra and 1–5 s for time-course experiments.
(§3) To prevent accumulation of fluorescent nucleotides in the bath, FluoroDishes were perfused with either (in mM) 140 KCl, 20 NaCl, 10 MgCl2, 10 HEPES pH 7.2 with NaOH or 140 KCl, 20 NaCl, 1 EDTA, 10 HEPES pH 7.2 with NaOH using a peristaltic pump (Ismatec; Wertheim, Germany). Unroofed membranes were directly perfused with nucleotides using an 8-channel µFlow perfusion system (ALA Scientific Instruments; Farmingdale, NY). Solution change with the µFlow was rapid (τ = 0.73 s±0.02 s, n=5) as measured from single exponential fits to wash-out of 50 µM tetramethylrhodamine-5-maleimide (TMRM) after switching to a solution with no TMRM. TMRM was excited with a 565 nm LED with a D540/25X band-pass filter (Chroma) and DM565 dichroic mirror (Chroma). Emitted light was collected through a D605/55M band-pass filter (Chroma). […]

SUR1-Y1353*,K2A/Kir6.2 [2] = molecular target: T3, SUR1-Y1353*,K2A/Kir6.2 (Homo sapiens, UniProt Q09428, K1384A/Y1353X); test: as above; conditions: absence of Mg2+
T3 construct: the signals we measured (fluorescence) were derived solely from full-length (i.e. ANAP-labeled) channels; expressed in transfected cells; host or cells: HEK-293T
Procedure: as §1, §2, §3

[3] = molecular target: SUR1-Y1353*/Kir6.2 (NBS2 of SUR1) (Homo sapiens, UniProt Q09428, Y1353X); test: as above
Procedure: as §1, §2, §3

SUR1-Y1353*/Kir6.2 = test: Nucleotide wash-out (dissociation) time course; format: binding, Homo sapiens; conditions: for t0.5 (time to 50% dissociation): no drug, mean ± SD of individual fits; for reduction of off-rate in the presence of Mg2+ (fold / factor): with vs without Mg2+; for τ of MgTNP-ADP dissociation in the presence of drug / τ of MgTNP-ATP dissociation in the presence of drug: 500 µM tolbutamide or 340 µM diazoxide
SUR1-Y1353*,K2A/Kir6.2 [4] = molecular target: T3, SUR1-Y1353*,K2A/Kir6.2; test: Nucleotide wash-out (dissociation) time course; format: binding; conditions: absence of Mg2+
From the text: as §3, with “[…] Solution exchange” for “Emitted light”, “also monitored during experiments with TNP-nucleotides by examining the emission spectrum of” for “collected through”, “background region in each image.” for “D605/55M band-pass filter (Chroma).”
To measure the time course of nucleotide unbinding, the fluorescence at the TNP-nucleotide peak (usually around 560 nm) was plotted as a function of time after exchanging to a zero-nucleotide solution, as following the time course of the rise in ANAP fluorescence was complicated by photobleaching. After complete wash out of nucleotides, the fluorescence at 560 nm was non-zero, as the shoulder of the ANAP emission spectrum extends into the range of wavelengths at which TNP-nucleotides emit. […]

SUR1/Kir6.2-G334D = molecular target: T4, SUR1/Kir6.2-G334D (Homo sapiens, UniProt Q09428); test: Current activation in inside-out patches; format: biochemical
T4 construct: expressed in transfected cells; host or cells: HEK-293T
Procedure: (§4) Currents were recorded from inside-out membrane patches excised from transfected HEK-293T cells. Pipettes were pulled to a resistance of 1–5 MΩ and filled with an extracellular solution containing (in mM) 140 KCl, 1.2 MgCl2, 2.6 CaCl2, and 10 HEPES, pH 7.4 or 140 KCl, 1 EGTA, 10 HEPES, pH 7.3. The intracellular (bath) solutions contained either (in mM) 107 KCl, 2 MgCl2, 1 CaCl2, 10 EGTA, and 10 HEPES, pH 7.2 for experiments showing nucleotide-dependent activation or 140 KCl, 1 EDTA, 1 EGTA, 10 HEPES pH 7.3 for experiments showing nucleotide-dependent inhibition. Nucleotides were added as indicated. Patches were perfused with an 8-channel µFlow perfusion system. Data were acquired at a holding potential of −60 mV using an Axopatch 200B amplifier and Digidata 1322A digitizer with pClamp 9.0 software (Molecular Devices). Currents were digitized at 10 kHz and low-pass filtered at 1 kHz. KATP channels run down in excised patches (reviewed by Proks et al.) ([Proks et al., 2016]). For inhibitory concentration-response relationships, rundown was corrected by alternating test nucleotide solutions with nucleotide-free (control) solutions and expressing the test currents as a fraction of the average of the control currents before and after the test solution. […]

SUR1-T1397*/Kir6.2 [5] = test: Current inhibition in inside-out patches in the absence of Mg2+; format: biochemical, Homo sapiens
Procedure: as §4

[6] = mean ± SEM of fits to individual experiments
[7] = absence of Mg2+ (1 mM EDTA), mean ± SEM of fits to individual experiments
[8] = absence of Mg2+, fit to combined data

Row | Molecule | EC50 (SUR1-T1397*/Kir6.2 [1]; fit to combined data) [µM] | Emax (SUR1-T1397*/Kir6.2 [1]; fit to combined data) | h (SUR1-T1397*/Kir6.2 [1]; fit to combined data) | EC50 (SUR1-T1397*/Kir6.2 [1]; [6]) [µM] | Emax (SUR1-T1397*/Kir6.2 [1]; [6]) | h (SUR1-T1397*/Kir6.2 [1]; [6]) | Emax (SUR1-Y1353*,K2A/Kir6.2 [2]; fit to combined data) | h (SUR1-Y1353*,K2A/Kir6.2 [2]; fit to combined data) | Emax (SUR1-Y1353*,K2A/Kir6.2 [2]; [6]) | h (SUR1-Y1353*,K2A/Kir6.2 [2]; [6]) | Emax [3, 7] | h [3, 7] | Emax [3, 8] | h [3, 8] | t0.5 (time to 50% dissociation) (SUR1-Y1353*/Kir6.2; absence of Mg2+) [s] | reduction of off-rate in the presence of Mg2+ (fold / factor) (SUR1-Y1353*/Kir6.2) | τ of MgTNP-ADP dissociation in the presence of drug (SUR1-Y1353*/Kir6.2; fit to combined data) [s] | τ of MgTNP-ATP dissociation in the presence of drug (SUR1-Y1353*/Kir6.2; fit to combined data) [s] | further results
1 | Nc1ncnc2c1ncn2[C@@H]1O[C@H](COP(=O)(O)OP(=O)(O)O)[C@@H](O)[C@H]1O [ADP] |  |  |  |  |  |  |  |  |  |  |  |  |  |  |  |  |  |  | reduction in current (SUR1/Kir6.2): ~ 60%
2 | trinitrophenyl-ADP [TNP-ADP] | 5.6 | 0.98 ± 0.05 | 0.7 ± 0.1 | 6.3 ± 2.3 | 0.98 ± 0.02 | 0.84 ± 0.13 | 0.91 ± 0.02 | 0.9 ± 0.1 | 0.92 ± 0.02 | 0.88 ± 0.05 | 0.95 ± 0.01 | 0.79 ± 0.04 | 0.95 ± 0.02 | 0.8 ± 0.1 | 2.9 ± 0.5 | ~ 5 |  |  | EC50 (SUR1-Y1353*,K2A/Kir6.2 [2]; fit to combined data): 4.4 µM; EC50 (SUR1-Y1353*,K2A/Kir6.2 [2]; [6]): 5 ± 1 µM; EC50 ([3]; absence of Mg2+ (1 mM EDTA), mean ± SEM of fits to individual experiments, read-out: EC50): 6.8 ± 1.3 µM; EC50 ([3]; absence of Mg2+, fit to combined data, read-out: EC50): 6.1 µM; effect of increasing concentration to 10 mM on amount of quenching ([3]; absence of Mg2+, n = 3, data not shown): did not significantly change; τ of dissociation (single exponential) (SUR1-Y1353*/Kir6.2; [8]): 4.2 s; τ of dissociation (single exponential) (SUR1-Y1353*,K2A/Kir6.2 [4]; fit to combined data): 5.4 s; t0.5 (time to 50% dissociation) (SUR1-Y1353*,K2A/Kir6.2 [4]; mean ± SD): 3.8 ± 1.0 s
3 | CCCCNC(=O)NS(=O)(=O)c1ccc(C)cc1 [tolbutamide] |  |  |  |  |  |  |  |  |  |  |  |  |  |  |  |  | 6.4 | 6.3 | effect on currents (SUR1/Kir6.2-G334D): inhibited
4 | Nc1ncnc2c1ncn2[C@@H]1O[C@H](COP(=O)(O)OP(=O)(O)OP(=O)(O)O)[C@@H](O)[C@H]1O [ATP] |  |  |  |  |  |  |  |  |  |  |  |  |  |  |  |  |  |  | IC50 (SUR1-T1397*/Kir6.2 [5]; Equation 4 fit to combined data): 49.2 µM; IC50 (SUR1-T1397*/Kir6.2 [5]; mean ± SEM of fits of Equation 4 to individual experiments): 53.9 ± 9.4 µM
5 | CC1=NS(=O)(=O)c2cc(Cl)ccc2N1 [diazoxide] |  |  |  |  |  |  |  |  |  |  |  |  |  |  |  |  | 52.6 | 60.5 | 
6 | Nc1ncnc2c1ncn2[C@@H]1O[C@H](COP(=O)(O)OP(=O)(O)OP(=O)(O)O)[C@H]2OC3(O[C@H]21)C([N+](=O)[O-])=CC(=[N+]([O-])[O-])C=C3[N+](=O)[O-] (stereo partly drawn) [TNP-ATP, trinitrophenyl-ATP] | 4.8 | 0.94 ± 0.02 | 0.8 ± 0.1 | 4.7 ± 0.8 | 0.94 ± 0.01 | 0.83 ± 0.09 | 0.87 ± 0.03 | 0.9 ± 0.2 | 0.90 ± 0.03 | 0.98 ± 0.13 | 0.83 ± 0.03 | 0.88 ± 0.06 | 0.84 ± 0.04 | 0.8 ± 0.1 | 4.8 ± 1.5 | 2.2 |  |  | EC50 ([3]; EC50, absence of Mg2+ (1 mM EDTA), mean ± SEM of fits to individual experiments): 12.8 ± 5.6 µM; EC50 ([3]; EC50, absence of Mg2+, fit to combined data): 8.5 µM; A1 of dissociation (bi-exponential amplitude) (SUR1-Y1353*/Kir6.2; [8]): 0.65 ± 0.06; A2 of dissociation (bi-exponential amplitude) (SUR1-Y1353*/Kir6.2; [8]): 0.35 ± 0.06; τ1 of dissociation (bi-exponential) (SUR1-Y1353*/Kir6.2; [8]): 4.5 s; τ2 of dissociation (bi-exponential) (SUR1-Y1353*/Kir6.2; [8]): 28.2 s
